Among the data in PubChem BioAssay (NCI) are TGI values, retold here.

Among the test systems are DMS 114 small cell lung; RXF-631 renal; M19-MEL melanoma; LXFL 529 NSCLC; BT-549 breast; SNB-78 CNS; MDA-N; XF 498 CNS; DMS 273 small cell lung.
Assay in all cases: NCI anticancer screen, dose series, 48 h

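How tested: cells in 96-well plates exposed to compound for 48 hours at five concentrations. TGI: concentration producing complete growth inhibition.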 Some results are limits rather than exact numbers.

As for `CCCCCCCCCCCCCC(=O)CBr`, the TGI was determined as 9.3 µM with DMS 114 small cell lung; 33.7 µM in the test with RXF-631 renal; 23.5 µM in the test on M19-MEL melanoma; 9.13 µM in the test on LXFL 529 NSCLC; 22.6 µM in the test on BT-549 breast; 30.9 µM with SNB-78 CNS. The compound also came in with a TGI with MDA-N of 25 µM.
Regarding `O=C(CN1CCN(c2ccccc2)CC1)N1CCc2c([nH]c3ccccc23)C1c1cccnc1` (configuration not stated), the TGI with XF 498 CNS is 71.8 µM; with DMS 114 small cell lung it was greater than 65 µM; with RXF-631 renal, greater than 94.5 µM; in the test with M19-MEL melanoma, greater than 100 µM; in the test with LXFL 529 NSCLC, greater than 100 µM; in the test on DMS 273 small cell lung, greater than 100 µM. In the test with SNB-78 CNS, the TGI is greater than 100 µM.
On to `COc1ccc(NC(=O)c2cc(OC)c(OC)c(OC)c2)cc1`, for which the TGI in the test on XF 498 CNS, with DMS 114 small cell lung, in the test on RXF-631 renal, with M19-MEL melanoma, in the test with LXFL 529 NSCLC and in the test with DMS 273 small cell lung was greater than 100 µM in each case. The TGI in the test on SNB-78 CNS is greater than 100 µM.
As to `COc1cccc(C2c3cc4c(cc3OC(O)(CO)C2C(=O)O)OCO4)c1` (configuration not stated) (tested in a mixture with another compound), the TGI with DMS 114 small cell lung, in the test on RXF-631 renal, with M19-MEL melanoma, with LXFL 529 NSCLC and in the test with DMS 273 small cell lung was greater than 100 µM throughout.
As to `Cc1cccc(C(C)C)c1NC(=O)C(=O)CC(=O)c1c(C)n([O-])c2ccccc2[n+]1=O`, the TGI with DMS 114 small cell lung is 52.1 µM; in the test on RXF-631 renal, 67.4 µM; with M19-MEL melanoma, 50.6 µM; in the test with LXFL 529 NSCLC, greater than 100 µM; with DMS 273 small cell lung it was 99.2 µM; in the test on SNB-78 CNS it was greater than 100 µM.
Regarding `CCCCCCCCCc1cc(=O)c2ccc(O)cc2o1`, the TGI with XF 498 CNS, with DMS 114 small cell lung, with RXF-631 renal, in the test with M19-MEL melanoma, in the test on LXFL 529 NSCLC and in the test with DMS 273 small cell lung was greater than 100 µM throughout. In addition, the TGI in the test on SNB-78 CNS was greater than 100 µM.
Consider `CSc1nc2c(nc(N)n2C2OCC(O)C(O)C2O)c(=O)n1C` (configuration not stated), for which the TGI in the test on XF 498 CNS, with DMS 114 small cell lung, in the test on RXF-631 renal, in the test on M19-MEL melanoma, in the test on LXFL 529 NSCLC and in the test on SNB-78 CNS was greater than 100 µM throughout.
For the compound `CCOC(=O)NN1C(=O)C(=P(c2ccccc2)(c2ccccc2)c2ccccc2)C(C(=O)OCC)=C1C`, the TGI with XF 498 CNS, in the test with RXF-631 renal, in the test on M19-MEL melanoma, in the test on LXFL 529 NSCLC, in the test with DMS 273 small cell lung and in the test with SNB-78 CNS was greater than 100 µM each time.
For the compound `S=c1[nH]c2ccc(Br)cc2c(=S)n1-c1ccccc1`, the TGI in the test with XF 498 CNS is 36.6 µM; in the test on DMS 114 small cell lung it was 54.3 µM; in the test with RXF-631 renal, greater than 100 µM; in the test with M19-MEL melanoma, 60.7 µM; in the test on DMS 273 small cell lung, 60.7 µM; in the test on SNB-78 CNS it was greater than 100 µM.
`CC1S(=O)(=O)OCCOS1(=O)=O`: the TGI with DMS 114 small cell lung, in the test on RXF-631 renal, in the test on M19-MEL melanoma, in the test with LXFL 529 NSCLC, in the test on DMS 273 small cell lung and in the test with SNB-78 CNS was greater than 100 µM throughout.
Consider `Cc1cc(=O)oc2cc3c(cc12)Oc1ccccc1O3`, for which the TGI was greater than 10 µM with XF 498 CNS; greater than 100 µM in the test on DMS 114 small cell lung; greater than 100 µM in the test with RXF-631 renal; greater than 100 µM with M19-MEL melanoma; greater than 100 µM in the test with LXFL 529 NSCLC; greater than 100 µM in the test with DMS 273 small cell lung. Further, the TGI with SNB-78 CNS was greater than 100 µM.
As to `O=C(O)c1cc(=O)c2[nH]c3ccccc3c2s1`, the TGI in the test on XF 498 CNS, in the test on DMS 114 small cell lung, in the test with RXF-631 renal, in the test with M19-MEL melanoma, in the test with LXFL 529 NSCLC and in the test on SNB-78 CNS was greater than 100 µM in each case.
Regarding `COc1cccc(C(=O)C2C(=O)N(C)CCc3ccccc32)c1OC` (configuration not stated), the TGI with XF 498 CNS, in the test on DMS 114 small cell lung, in the test with RXF-631 renal, in the test with M19-MEL melanoma, in the test with LXFL 529 NSCLC and with DMS 273 small cell lung was greater than 100 µM throughout.
As to `CN(C)CCCN1CCc2c([nH]c3ccccc23)C1c1cccnc1` (configuration not stated), the TGI in the test on XF 498 CNS, with DMS 114 small cell lung, in the test on RXF-631 renal, with M19-MEL melanoma, in the test on LXFL 529 NSCLC and in the test with DMS 273 small cell lung was greater than 100 µM each time. In addition, the TGI with SNB-78 CNS was greater than 100 µM.
Regarding `COc1nc2nccc-2c2occn12`, the TGI in the test on XF 498 CNS, in the test on DMS 114 small cell lung, in the test with RXF-631 renal, in the test with M19-MEL melanoma, with LXFL 529 NSCLC and with DMS 273 small cell lung was greater than 100 µM throughout. Moreover, the TGI in the test on SNB-78 CNS is greater than 100 µM.
Take `CC(=O)c1cc([N+](=O)[O-])ccc1OCC(=O)O`: the TGI with DMS 114 small cell lung, in the test with RXF-631 renal, with M19-MEL melanoma, with LXFL 529 NSCLC, in the test on DMS 273 small cell lung and in the test on SNB-78 CNS was greater than 100 µM each time.
As for `Cc1ccc(NC(=O)/C(=N\Nc2ccc([N+](=O)[O-])cc2[N+](=O)[O-])C2C(=O)NC(=O)NC2=O)cc1`, the TGI in the test with DMS 114 small cell lung, in the test with RXF-631 renal, with M19-MEL melanoma, with LXFL 529 NSCLC and with SNB-78 CNS was greater than 100 µM in each case.
